In patent US5498427A, “Solutions for the perfusion, preservation and reperfusion of organs” (Pasteur Merieux Serums et Vaccines, priority 1990, dated 1996):

How the values were obtained:
[1] = test system: isolated hearts from Sprague-Dawley rats; test: Test of solutions containing NAC on isolated rat heart preparations (Langendorff, arrest, 5 h cold storage, 1 h ischemia, 1 h reperfusion); conditions: for Left ventricular pressure developed, Reperfusion: after ischemia and reperfusion; for Left ventricular pressure developed, Reperfusion / Coronary flow rate, Reperfusion / Coronary flow rate, Normal / Left ventricular pressure developed, Normal: N = 10; for Coronary flow rate, Normal / Left ventricular pressure developed, Normal: pre-ischaemic reference value
Description: Fifty isovolumic preparations of isolated hearts from Sprague-Dawley rats weighing 300 grams were used, the hearts being connected rapidly to a non-recirculating Langendorff perfusion column to establish a retrograde perfusion using an oxygenated (95% O2, 5% CO2) Krebs-Henseleit buffer, to establish a retrograde perfusion at a pressure of 100 cm of water. The left ventricular pressure, its derivative and the end-diastolicpressure were recorded continuously. The coronary flow rate was measured by noting the venous coronary flow rate. Left ventricular stimulation was maintained at a frequency of 320/min.
After a twenty-minute monitoring period, thirty hearts were arrested by perfusion using the preservation and perfusion solution at 4° C., and then rapidly placed in glass containers filled with the same solution and surrounded by ice. The hearts were maintained therein for five hours, with a mean myocardial temperature of 2° C. at the end of storage. The hearts were then reconnected to the perfusion circuit and subjected to an additional ischemia for one hour at between 15° and 18° C. The hearts were divided into three groups, including a control group which received a first perfusion of a solution which was identical but devoid of NAC on establishment of the post-storage ischemia and an additional perfusion of 25 ml of this solution immediately before unclamping the aorta, the perfusions being performed at 4° C. and 28° C., respectively. […] In the third group, a solution containing NAC at 28° C. was distributed in a single dose at the end of the ischemia. In this latter group, the NAC concentration was adjusted to 0.072 M so that all the hearts treated received the same amount of this substance, that is to say approximately 1.80 millimoles. The bottles containing the solutions as well as the connecting tubes were protected from light in order to avoid oxidation. In all three groups, the perfusions after storage were delivered at a pressure of 30 cm of water. After a period of ischemia of six hours, the hearts were reperfused for one hour at 37° C.
For all three groups, the stimulation was stopped and the left intraventricular balloon deflated during the period of ischemia so as to simulate clinical conditions. After reperfusion, stimulation was reestablished. Isovolumetric measurements of the coronary flow rate, the left ventricular pressure, its first derivative and the telediastolic pressure were performed three times during the monotoring period and then at 5, 30, 45 and 60 minutes during the reperfusion.

[2] = hypothermic storage conditions in usual bags, periods up to 3 hours
Text: In one embodiment the solution is stored, as a whole, in the container.

[3] = Group II, multidose solution enriched with NAC, versus Groups I and III
[4] = Second group, (0.04 M) NAC multidose
[5] = Third group, (0.07 M) NAC single dose at end of ischemia

Structure (SMILES) | Left ventricular diastolic pressure: postischemic contracture ([1]; Group II, multidose solution enriched with NAC) | Left ventricular pressure developed throughout the reperfusion period [1, 3] | Postischemic derivative dP/dt [1, 3] | Left ventricular diastolic pressure: compliance ([1]; Group III, reperfusion supplemented with NAC only at end of ischemia) | Left ventricular pressure loss after ischemia and reperfusion ([1]; Group III, reperfusion supplemented with NAC only at end of ischemia, versus Group II) | Left ventricular pressure developed, Reperfusion [1, 4] | Coronary flow rate, Reperfusion ([1]; Second group, (0.04 M) NAC multidose, after sixty minutes of reperfusion) | Coronary flow rate, Normal [1, 4] | Left ventricular pressure developed, Normal [1, 4] | Left ventricular pressure developed, Reperfusion [1, 5] | Coronary flow rate, Reperfusion ([1]; Third group, (0.07 M) NAC single dose at end of ischemia, after sixty minutes of reperfusion) | Coronary flow rate, Normal [1, 5] | Left ventricular pressure developed, Normal [1, 5] | Recovery of coronary flow rate ([1]; groups treated with NAC versus control, after sixty minutes of reperfusion) | Rate of glutathione oxydation on storage [2]
CC(=O)N[C@@H](CS)C(=O)O [NAC, N-acetylcysteine] | significantly decreased | significantly greater pressure was developed | largest values | significant loss of compliance | significantly greater pressure losses | 101.5 ± 3.4 mm Hg | 12.1 ± 0.5 mL/min | 14.8 ± 0.6 mL/min | 126.4 ± 2.8 mm Hg | 69.8 ± 3.6 mm Hg | 13.4 ± 0.4 mL/min | 16.0 ± 0.5 mL/min | 129.7 ± 2.0 mm Hg | best recovery of coronary flow rate | 
N[C@@H](CCC(=O)N[C@@H](CS)C(=O)NCC(=O)O)C(=O)O [glutathione] |  |  |  |  |  |  |  |  |  |  |  |  |  |  | only minimal rate of glutathione oxydation
